The target of one assay is T1, STAT3 (Homo sapiens, UniProt P40763).
T1 construct: endogenous in cells; host or cells: hTERT-EPC2 human esophageal epithelial keratinocytes at air-liquid interface (EPC2-ALI)
Nature of the assay: Western blot of EPC2-ALI for total and phosphorylated STAT3. It counts as cell-based. The note with it: SD-36 10 uM. As for the experimental part: (§1) EPC2-ALI culture—hTERT immortalized human esophageal epithelial keratinocytes (hTERT-EPC2) were cultured under air-liquid-interface conditions as described 9, 41. In brief, EPC2-hTERT cells were seeded onto permeable (0.4 μm) transwell support (Corning Incorporated, Corning, NY, USA) and grown to confluence while fully submerged in low-calcium ([Ca2+]=0.09 mM) keratinocyte serum-free media (K-SFM) (Life Technologies; Carlsbad, CA). Epithelial differentiation was induced by culturing submerged cell monolayers in high-calcium K-SFM ([Ca2+]=1.8 mM) for 4 days (day 3 to 7). Cells were then exposed for 5 days (day 7 to 12) at ALI by removing cell media from the top chamber, to induce stratification.
Western blot—EPC2 ALI cells and primary esophageal cells were lysed following stimulation, using a protein extraction reagent (10% Glycerol, 20 mM Tris HCl pH7, 137 mM NaCl, 2 mM EDTA, 1% NP-40 in H2O) with Halt™ protease inhibitor cocktail (Thermo Fisher Scientific Incorporated; Rockford, IL, USA) and PhosSTOP phosphatase inhibitor cocktail tablet (Roche Diagnostics; Mannheim, Germany). […] of protein extract were separated on a 4%-12% Bis-Tris gel and transferred to a nitrocellulose membrane (Life Technologies; Carlsbad, CA). […]

Assay [1] deals with EPC2-ALI cells. The experiment in a line: qPCR mRNA expression of EoE proliferation and inflammatory genes in EPC2-ALI. It counts as cell-based, human. The note with it: in the presence of SD-36. How it is done: as §1
Quantitative PCR—RNA was extracted from EPC2-ALI cells by using the Quick-RNA Microprep Kit (Zymo Research Corporation) according to the manufacturer's protocol. Purified RNA (500 ng) was DNase treated and reverse transcribed to cDNA by using Superscript II RNase H Reverse Transcriptase (Thermo Fisher Scientific, Rockford, Ill), according to the manufacturer's instructions. cDNA for ANO1, CAPN14, CCL26, TP63, SFRP1, STAT3 and hypoxanthine phosphoribosyltransferase (HPRT) was quantified by using real-time PCR with the IQ SYBR Green Supermix (Bio-Rad Laboratories, Hercules, Calif) with the CFX96 Touch Real-Time PCR Detection System (Bio-Rad Laboratories). Quantitative PCR (qPCR) analyses were performed by using Bio-Rad CFX Manager Software (version 3.1; Bio-Rad Laboratories), and the results were normalized with HPRT amplified from the same cDNA mix and expressed as fold induction (2^-(ΔΔCT). Primers used for amplification were: […]

In assay [2] the test system is EPC2-ALI cells. Nature of the assay: Quantification of Ki67-positive EPC2-ALI cells. The note with it: for Ki67+ EPC2-ALI cells under IL-13-stimulation: compared to IL-13 alone; for Ki67+ EPC2-ALI cells, treatment alone: without IL-13, compared to steady-state (Vehicle). Type of assay: cell-based, human. How it is done: as §1
Quantification of Ki67-positive EPC2-ALI cells—EPC2-ALI cells were cultured in the presence or absence of their respective stimulations for 48 hours. For immunofluorescence (IF) staining, formalin- or paraformaldehyde-fixed, paraffin-embedded transwell sections were sectioned, mounted on slides, and deparaffinized by using standard histologic procedures. Slides were then permeabilized in Tris-EDTA (1 mmol/L, pH 9.0) with 0.1% Tween-20, and antigen exposure was performed at 125° C. for 30 seconds in a decloaking chamber by using a pressure cooker. Slides were then blocked by 10% normal donkey serum for 1 hour, followed by overnight incubation of primary antibodies diluted in 10% normal donkey serum at a final concentration of 1 μg/mL: anti-Ki67 (1:1000; clone: SolA15; Invitrogen), slides were then washed and incubated with secondary antibody at RT for 1 hour. Slides were mounted with 4′-6-diamidino-2-phenylindole dihydrochloride Fluoromount-G (SouthernBiotech, Birmingham, Ala) mounting solution. Fluorescent imaging was performed with the Zeiss Apotome fluorescent microscope (Carl Zeiss Meditec, Dublin, Calif) using Nikon Elements software. Ki67+ cells were quantified as the number of Ki67+-labeled cells per total linear length of filter-attached EPC2-ALI cells using FIJI ImageJ. Three filters per condition from 3 individual experiments were quantitated.

The next assay deals with T2, IL4Rα chain (Homo sapiens, UniProt P24394).
T2 construct: adults with active EoE who received weekly subcutaneous injections of dupilumab; host or cells: human patients (in vivo)
The following applies: adults with active EoE, weekly subcutaneous injections; cited from earlier work.

Another assay addresses T3, IL-13 (Homo sapiens, UniProt P35225).
T3 construct: Treatment of adult EoE patients with RPC4046, a recombinant humanized monoclonal antibody against IL-13 improves histologic and endoscopic outcomes; host or cells: human patients (in vivo)
The following applies: cited from earlier work.

T3 sequence (P35225 25-146): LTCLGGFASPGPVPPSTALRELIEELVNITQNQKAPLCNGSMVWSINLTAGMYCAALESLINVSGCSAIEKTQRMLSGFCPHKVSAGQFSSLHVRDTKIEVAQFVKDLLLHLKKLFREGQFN
T1 sequence (P40763 whole entry): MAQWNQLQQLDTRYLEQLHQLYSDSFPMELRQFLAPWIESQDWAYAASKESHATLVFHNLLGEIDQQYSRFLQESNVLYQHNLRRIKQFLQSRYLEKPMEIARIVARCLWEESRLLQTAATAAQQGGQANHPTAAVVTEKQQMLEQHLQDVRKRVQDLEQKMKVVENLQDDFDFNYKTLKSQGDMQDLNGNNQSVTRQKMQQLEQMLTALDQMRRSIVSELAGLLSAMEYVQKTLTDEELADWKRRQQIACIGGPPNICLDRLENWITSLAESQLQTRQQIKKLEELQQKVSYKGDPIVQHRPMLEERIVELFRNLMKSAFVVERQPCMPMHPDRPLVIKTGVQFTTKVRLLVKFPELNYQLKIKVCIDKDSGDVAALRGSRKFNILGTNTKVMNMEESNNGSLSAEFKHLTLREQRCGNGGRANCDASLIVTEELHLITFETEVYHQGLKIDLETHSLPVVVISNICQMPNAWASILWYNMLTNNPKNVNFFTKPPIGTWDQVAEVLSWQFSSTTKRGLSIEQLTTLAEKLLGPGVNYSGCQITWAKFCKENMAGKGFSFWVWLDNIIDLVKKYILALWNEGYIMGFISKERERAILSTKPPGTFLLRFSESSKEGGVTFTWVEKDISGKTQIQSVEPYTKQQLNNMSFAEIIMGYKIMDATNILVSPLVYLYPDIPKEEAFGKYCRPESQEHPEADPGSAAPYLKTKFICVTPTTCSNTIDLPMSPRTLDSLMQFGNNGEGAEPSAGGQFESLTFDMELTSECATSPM

Turning to `NC(=O)CC[C@H](NC(=O)[C@@H]1CC[C@@H]2CCN(C(=O)CCCCCC#Cc3cccc4c3CN(C3CCC(=O)NC3=O)C4=O)C[C@H](NC(=O)c3cc4cc(C(F)(F)P(=O)(O)O)ccc4[nH]3)C(=O)N21)C(=O)NC(c1ccccc1)c1ccccc1` (stereo partly drawn) [SD-36], the “IL-13 induced phosphorylation of STAT3 Y705 and Y727 residues” value at STAT3 (IL-13 100 ng/mL) is recorded as “total loss”. The “degradation of STAT3 (total STAT3 protein)” value at STAT3 (at steady state and following IL-13-stimulation (100 ng/mL)) was “led to degradation of STAT3”. In the assay on EPC2-ALI cells [1], the “IL-13-induced mRNA expression of ANO1” value was “abolished”; the “IL-13-induced mRNA expression of TP63” value is reported as “abolished”; the “IL-13 induction of canonical EoE inflammatory genes (CCL26, SLC9A3, CAPN14) mRNA” value was “not significantly inhibited”. Further, the “IL-13-induced increase in EPC2-ALI Ki-67+ cells” value in the assay with EPC2-ALI cells [2] (SD-36 10 uM, IL-13 100 ng/mL, 48 hours) is “attenuated”.
Take `O=S(=O)(NC1CCNCC1)c1cc(S(=O)(=O)c2ccccc2)ccc1C(F)(F)F` [SFRP1inh]: in the assay with EPC2-ALI cells [2], the “Ki67+ EPC2-ALI cells under IL-13-stimulation” value is on record as “increase” and the “Ki67+ EPC2-ALI cells, treatment alone” value is on record as “increase”.
Turning to “dupilumab: fully human IgG4 monoclonal antibody that binds the IL4Rα chain and blocks both IL-4 and IL-13 signaling”, in the assay with IL4Rα chain, the esophageal distensibility result is listed as “increased”; the “histologic and endoscopic severity scores” value is reported as “decreased”; the “peak esophageal eosinophil count” value is reported as “reduced”.

B1: rSFRP1: recombinant secreted frizzled-related protein 1, used as pharmacologic agonist (protein, UniProt Q8N474 32-314, looked up)
Secreted frizzled-related …: SEYDYVSFQSDIGPYQSGRFYTKPPQCVDIPADLRLCHNVGYKKMVLPNLLEHETMAEVKQQASSWVPLLNKNCHAGTQVFLCSLFAPVCLDRPIYPCRWLCEAVRDSCEPVMQFFGFYWPEMLKCDKFPEGDVCIAMTPPNATEASKPQGTTVCPPCDNELKSEAIIEHLCASEFALRMKIKEVKKENGDKKIVPKKKKPLKLGPIKKKDLKKLVLYLKNGADCPCHQLDNLSHHFLIMGRKVKSQYLLTAIHKWDKKNKEFKNFMKKMKNHECPTFQSVFK
As to B1, in the assay on EPC2-ALI cells [2], the “Ki67+ EPC2-ALI cells under IL-13-stimulation” value is listed as “decrease” and the “Ki67+ EPC2-ALI cells, treatment alone” value is on record as “sufficient to inhibit esophageal epithelial proliferation”.

B2: RPC4046: recombinant humanized monoclonal antibody against IL-13 (antibody, chains of the INN, looked up, V domains shown)
VH: EVTLRESGPGLVKPTQTLTLTCTLYGFSLSTSDMGVDWIRQPPGKGLEWLAHIWWDDVKRYNPALKSRLTISKDTSKNQVVLKLTSVDPVDTATYYCARTVSSGYIYYAMDYWGQGTLVTVSS
VL: DIQMTQSPSSLSASVGDRVTISCRASQDIRNYLNWYQQKPGKAPKLLIFYTSKLHSGVPSRFSGSGSGTDYTLTISSLQPEDIATYYCQQGNTLPLTFGGGTKVEIK
In the case of B2, the “endoscopic, histologic and clinical improvement in long-term extension” value with IL-13 (52-week open-label LTE study, 360 mg/week) is “sustained endoscopic, histologic and clinical improvement”. Moreover, the “histologic and endoscopic outcomes” value with IL-13 (adult EoE patients) was “improves”.

The values above are taken from patent US20260240940A1, “REGULATING DISEASE OR DISORDER CHARACTERIZED BY ESOPHAGEAL EPITHELIAL PROLIFERATION THROUGH SECRETED FRIZZLED-RELATED PROTEIN 1 (SFRP1)” (The Regents of the University of Michigan, priority 2023, published 2026).
